Test results from the Deep4Chem optical property database.
“And” between values parts separate entries of the source, which are not always exact repeats. Identical values can stand only once. One block for each molecule: values may come before it.

Experiment: solvent given as SMILES

absorption maximum (in CC1CCCO1): 691 nm
Compound: CC1=CC(/C=C/c2ccc3ccc4cccc5ccc2c3c45)=[N+]2C1=C(c1ccccc1)c1c(C)cc(/C=C/c3ccc4ccc5cccc6ccc3c4c56)n1[B-]2(F)F

absorption maximum (in ClCCl): 611 nm
Compound: CCCCCCOc1cc(/C=C/c2cc(OCCCCCC)c(/C=C/c3cc(OCCCCCC)c(/C=C4\C(=O)c5ccccc5C4=C(C#N)C#N)cc3OCCCCCC)cc2OCCCCCC)c(OCCCCCC)cc1/C=C1\C(=O)c2ccccc2C1=C(C#N)C#N

absorption maximum (in CCO): 443 nm
Compound: CCOC(=O)c1cc(C(=O)OCC)c2cc(N(C)C)ccc2n1

absorption maximum (in C1COCCO1): 442 nm
Compound: COC(=O)c1ccc(/C=C2\C=C(c3ccc([N+](=O)[O-])cc3)N(CC(C)C)C2=O)cc1

absorption maximum (in ClC(Cl)Cl): 332 nm
Compound: CN(C)c1ccc(-c2ccc(-c3cc(-c4ccccc4)c(-c4ccccc4)c(-c4ccccc4)c3-c3ccccc3)nc2)cc1

Compound: Cc1cc(Br)cn(Cn2cccc(C)c2=O)c1=N
absorption maximum (in CC(=O)O): 310 nm

absorption maximum (in CCO): 354 nm
absorption maximum (in ClC(Cl)Cl): 355 nm
Compound: COc1ccc2c(-c3nc(-c4ccccc4Cl)no3)cc(=O)oc2c1

absorption maximum (in ClCCl): 339 nm
Compound: CCCCn1c(-c2ccc(-c3nnc(-c4ccccc4)o3)cc2)nc(-c2ccccc2)c1-c1ccccc1

absorption maximum (in ClC(Cl)Cl): 549 nm
Compound: CC1=[N+]2C(=C(c3c4ccccc4cc4ccccc34)c3ccc(/C=C/C(C)(C)C)n3[B-]2(F)F)C=C1

Compound: CC(C)(C)c1ccc2c(c1)c1cc(C(C)(C)C)ccc1n2-c1cc(N2c3ccccc3C(c3ccccc3)(c3ccccc3)c3ccccc32)cc(-n2c3ccc(C(C)(C)C)cc3c3cc(C(C)(C)C)ccc32)c1C#N
absorption maximum (in Cc1ccccc1): 378 nm

Compound: O=P1(c2ccccc2)C(c2cc(C(F)(F)F)cc(C(F)(F)F)c2)=Cc2c3ccc4cccc5ccc(c6cc(-c7ccc(N(c8ccccc8)c8ccccc8)cc7)n1c26)c3c45 (configuration not stated)
absorption maximum (in C1CCCCC1): 434 nm
absorption maximum (in C1CCOC1): 437 nm
absorption maximum (in C1COCCO1): 436 nm
absorption maximum (in CC#N): 434 nm
absorption maximum (in CC(C)=O): 435 nm
absorption maximum (in CO): 444 nm
absorption maximum (in Cc1ccccc1): 441 nm
absorption maximum (in ClC(Cl)Cl): 441 nm
absorption maximum (in ClCCl): 437 nm

Compound: CCOC(=O)C(C(=O)OCC)C1=[N+]2C(=C(c3ccc(C)cc3)c3ccc(C(C(=O)OCC)C(=O)OCC)n3[B-]2(F)F)C=C1
absorption maximum (in C1CCCCC1): 515 nm
absorption maximum (in C1CCOC1): 512 nm
absorption maximum (in CCOC(C)=O): 510 nm
absorption maximum (in CO): 509 nm
absorption maximum (in Cc1ccccc1): 514 nm
absorption maximum (in ClC(Cl)Cl): 513 nm

Compound: CCn1c2ccccc2c2cc(C#Cc3cc(C#Cc4ccc5c(c4)c4ccccc4n5CC)nc(C#N)n3)ccc21
absorption maximum (in C1CCOC1): 410 nm
absorption maximum (in CCOC(C)=O): 405 nm
absorption maximum (in CN(C)C=O): 411 nm
absorption maximum (in Cc1ccccc1): 410 nm
absorption maximum (in ClCCl): 415 nm

absorption maximum (in ClCCl): 359 nm and 375 nm
Compound: CCCCCC(=O)c1ccc2c3c(sc2c1)-c1ccccc1P3(=O)c1ccccc1 (configuration not stated)

absorption maximum (in ClC(Cl)Cl): 341 nm
Compound: CCCCCCCCC1(CCCCCCCC)c2cc(-c3ccc(C(=O)OC)cc3)ccc2-c2ccc(-c3ccc(C(=O)OC)cc3)cc21

absorption maximum (in ClC(Cl)Cl): 662 nm
Compound: COc1ccc(-c2c(-c3ccc(C)cc3)c3n(c2-c2ccc(C)cc2)[B-](F)(F)[N+]2=C(c4ccc(C)cc4)C(/C=C/C(=O)OC4CC[C@@]5(C)C(=CC[C@H]6[C@@H]7CC[C@H]([C@H](C)CCCC(C)C)[C@@]7(C)CC[C@@H]65)C4)=C(c4ccc(C)cc4)C2=N3)cc1 (some centres not stated)

Compound: CN(C)c1ccc(/C=C/c2cc[n+](C)cc2)cc1
absorption maximum (in C1CCOC1): 483 nm
absorption maximum (in CC1COC(=O)O1): 473 nm
absorption maximum (in CC#N): 470 nm
absorption maximum (in CC(C)=O): 474 nm and 468 nm
absorption maximum (in CC(C)O): 477 nm
absorption maximum (in CCO): 480 nm
absorption maximum (in CCOC(C)=O): 464 nm
absorption maximum (in CO): 476 nm and 474 nm
absorption maximum (in CS(C)=O): 471 nm
absorption maximum (in ClC(Cl)Cl): 500 nm
absorption maximum (in ClCCl): 522 nm
absorption maximum (in O): 448 nm
absorption maximum (in c1ccncc1): 494 nm

absorption maximum (in C1COCCO1): 448 nm
Compound: CN(C)c1ccc(/C=C/c2ccc([N+](=O)[O-])c(O)c2)cc1

Compound: O=S(=O)([O-])c1ccccc1/C=C/c1ccc(-c2nnc(-c3ccc(/C=C/c4ccccc4S(=O)(=O)[O-])cc3)o2)cc1
absorption maximum (in C1CCOC1): 346 nm
absorption maximum (in CC(C)=O): 344 nm
absorption maximum (in CN(C)C=O): 348 nm

Compound: CCNCC
absorption maximum (in CCCCCC): 193 nm

absorption maximum (in CC#N): 574 nm
absorption maximum (in CCCCCC): 577 nm
absorption maximum (in CCOC(C)=O): 575 nm
absorption maximum (in CO): 574 nm
absorption maximum (in ClCCl): 579 nm
Compound: CCCSC1=[N+]2C(=C(c3ccccc3)c3ccc(SCCC)n3[B-]2(F)F)C=C1

absorption maximum (in CC#N): 309 nm
Compound: Cc1sc(Cl)cc1-c1nc(-c2ccc(Cl)cc2)[nH]c1-c1cc(Cl)sc1C

absorption maximum (in C1CCOC1): 409 nm
absorption maximum (in CC#N): 405 nm
absorption maximum (in CO): 360 nm
absorption maximum (in ClCCl): 406 nm
Compound: CCc1s[c+](N2CCCCC2)sc1-c1cc(C)cc(I)c1[O-]

absorption maximum (in CC1CCCO1): 305 nm
Compound: c1ccc2c(c1)-c1ccccc1C21c2ccccc2-c2cnccc21

absorption maximum (in ClC(Cl)Cl): 606 nm
Compound: CCCCCCCCN1C(=O)c2ccc3c4c(-c5ccc(N(c6ccccc6)c6ccccc6)cc5)cc5c6c(cc(-c7ccc(N(c8ccccc8)c8ccccc8)cc7)c(c7ccc(c2c37)C1=O)c64)C(=O)N(CCCCCCCC)C5=O

absorption maximum (in C1CCCCC1): 323 nm
absorption maximum (in CC#N): 313 nm
absorption maximum (in CO): 309 nm
absorption maximum (in ClC(Cl)Cl): 326 nm
Compound: CN(C)c1ccc(-c2nc(C#N)c(C#N)n2C)cc1

Compound: CCN(CC)c1ccc2cc(-c3csc(N)c3C#N)c(=O)oc2c1
absorption maximum (in C1CCOC1): 403 nm
absorption maximum (in CO): 406 nm
absorption maximum (in CS(C)=O): 406 nm
absorption maximum (in Cc1ccccc1): 403 nm
absorption maximum (in ClCCl): 407 nm

absorption maximum (in ClCCl): 386 nm
Compound: N#Cc1cc(/C=C/c2ccc(N(c3ccccc3)c3ccccc3)cc2)ccc1-c1ccc(/C=C/c2ccc(N(c3ccccc3)c3ccccc3)cc2)cc1C#N

absorption maximum (in CC#N): 403 nm
Compound: Oc1ccccc1/C=N/c1cc2nc3ccccc3nc2cc1/N=C/c1ccccc1O

absorption maximum (in CO): 370 nm
Compound: Cc1cc(C)c(B(c2cc(-c3c(C)cc(C)cc3C)sc2-c2sc(-c3c(C)cc(C)cc3C)cc2P(=O)(c2ccccc2)c2ccccc2)c2c(C)cc(C)cc2C)c(C)c1

absorption maximum (in C1CCOC1): 393 nm
absorption maximum (in ClC(Cl)Cl): 394 nm
Compound: F[Si](c1ccccc1)(c1ccccc1)c1c2ccccc2cc2ccccc12

absorption maximum (in C1CCOC1): 346 nm
Compound: Cc1ccc(/C=C/C(F)(F)F)c(N)c1

Compound: COc1ccc2c3cccc4c(OC)ccc(c5cccc1c52)c43
absorption maximum (in C1CCOC1): 458 nm
absorption maximum (in Cc1ccccc1): 459 nm
absorption maximum (in ClC(Cl)(Cl)Cl): 460 nm
absorption maximum (in ClC(Cl)Cl): 459 nm
absorption maximum (in ClCCl): 459 nm
absorption maximum (in c1ccncc1): 463 nm

Compound: Cc1ccccc1/C(C#N)=C/c1ccc(N(C)C)cc1
absorption maximum (in C1CCOC1): 376 nm
absorption maximum (in C1COCCO1): 376 nm
absorption maximum (in CC#N): 377 nm
absorption maximum (in CCCCCC): 364 nm
absorption maximum (in CCCCCCC): 376 nm
absorption maximum (in CCCCCO): 376 nm
absorption maximum (in CCCCO): 376 nm
absorption maximum (in CCCO): 374 nm
absorption maximum (in CCO): 376 nm
absorption maximum (in CCOC(C)=O): 373 nm
absorption maximum (in CN(C)C=O): 382 nm
absorption maximum (in CO): 374 nm
absorption maximum (in CS(C)=O): 385 nm
absorption maximum (in Cc1ccccc1): 366 nm
absorption maximum (in ClC(Cl)Cl): 378 nm

absorption maximum (in CCCCCC): 486 nm
Compound: CC(C)[Si](C#Cc1c2ccccc2c(C#C[Si](C(C)C)(C(C)C)C(C)C)c2nc3c(nc12)Cc1ccccc1-3)(C(C)C)C(C)C

absorption maximum (in C1CCOC1): 332 nm
Compound: N#Cc1c(N2CCCCC2)cc(-c2ccc(-c3ccccc3)cc2)c2c1CCc1ccccc1-2
